Biological target: GLP-1R (Homo sapiens, UniProt P43220)
Test: GLP-1R Activation - cAMP Assay
Type: cell-based
Details: cAMP increase in CHO cells stably expressing GLP-1R; each compound run on one of the two cAMP assays (Assay 1 or Assay 2, not specified)
How it was run: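 CHO cells stably expressing GLP-1R, plated at 1,000 cells/well overnight, then equilibrated 1 h in HBSS with 20 mM Hepes and 0.1% BSA. Agonist added as 10-point dose response for 30 min at 37 °C. cAMP measured by HTRF (Cisbio Gs Dynamic kit); EC50 from sigmoidal fit.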

Sequence of GLP-1R (P43220 24-463): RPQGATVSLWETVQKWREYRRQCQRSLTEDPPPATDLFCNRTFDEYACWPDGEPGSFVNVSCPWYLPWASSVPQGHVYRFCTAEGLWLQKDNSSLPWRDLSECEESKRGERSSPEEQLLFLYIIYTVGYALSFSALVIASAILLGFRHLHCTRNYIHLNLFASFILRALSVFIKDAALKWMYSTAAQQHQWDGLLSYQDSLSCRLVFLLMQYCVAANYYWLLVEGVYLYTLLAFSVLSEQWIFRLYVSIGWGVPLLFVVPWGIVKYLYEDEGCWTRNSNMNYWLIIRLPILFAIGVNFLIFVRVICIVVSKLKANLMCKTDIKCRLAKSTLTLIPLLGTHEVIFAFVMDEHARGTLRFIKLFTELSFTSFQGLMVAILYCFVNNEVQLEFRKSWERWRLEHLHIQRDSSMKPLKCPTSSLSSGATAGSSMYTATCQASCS

| SMILES | EC50 |
| --- | --- |
| Cc1cc(Cc2nc3ccc(C(=O)O)cc3n2[C@@H]2COCC2(C)C)c(Cl)cc1-c1ccnc(OCc2ccc(C#N)cc2F)n1 [Example 320, (S)-2-(2-chloro-4-(2-((4-cyano-2-fluorobenzyl)oxy)pyrimidin-4-yl)-5-methylbenzyl)-1-(4,4-dimethyltetrahydrofuran-3-yl)-1H-benzo[d]imidazole-6-carboxylic acid] | 0.827 nM |
| CC1(C)COC[C@H]1n1c(Cc2c(F)cc(-c3cccc(OCc4ccc(C#N)cc4F)n3)cc2F)nc2ccc(C(=O)O)cc21 [Example 321, (S)-2-(4-(6-((4-cyano-2-fluorobenzyl)oxy)pyridin-2-yl)-2,6-difluorobenzyl)-1-(4,4-dimethyltetrahydrofuran-3-yl)-1H-benzo[d]imidazole-6-carboxylic acid] | 0.083 nM |
| CC1(C)COC[C@H]1n1c(Cn2cc(Cl)c(-c3cccc(OCc4ccc(C#N)cc4F)n3)cc2=O)nc2c(F)cc(C(=O)O)cc21 [Example 326, (S)-2-((5′-chloro-6-((4-cyano-2-fluorobenzyl)oxy)-2′-oxo-[2,4′-bipyridin]-1′(2′H)-yl)methyl)-1-(4,4-dimethyltetrahydrofuran-3-yl)-4-fluoro-1H-benzo[d]imidazole-6-carboxylic acid] | 0.236 nM |
| CC1(C)COC[C@H]1n1c(Cn2cc(Cl)c(-c3cccc(OCc4ccc(Cl)cc4F)n3)cc2=O)nc2c(F)cc(C(=O)O)cc21 [Example 327, (S)-2-((5′-chloro-6-((4-chloro-2-fluorobenzyl)oxy)-2′-oxo-[2,4′-bipyridin]-1′(2′H)-yl)methyl)-1-(4,4-dimethyltetrahydrofuran-3-yl)-4-fluoro-1H-benzo[d]imidazole-6-carboxylic acid] | 0.266 nM |
| CC1(C)COC[C@H]1n1c(Cn2cc(F)c(-c3ccc(F)c(OCc4ccc(C#N)cc4F)n3)cc2=O)nc2ccc(C(=O)O)cc21 [Example 328, (S)-2-((6-((4-cyano-2-fluorobenzyl)oxy)-5,5′-difluoro-2′-oxo-[2,4′-bipyridin]-1′(2′H)-yl)methyl)-1-(4,4-dimethyltetrahydrofuran-3-yl)-1H-benzo[d]imidazole-6-carboxylic acid] | 0.555 nM |

Further lines, results first:

| EC50 | SMILES |
| --- | --- |
| 0.346 nM | CC1(C)COC[C@H]1n1c(Cc2c(F)cc(-c3ccc(F)c(OCc4ccc(C#N)cc4F)n3)cc2F)nc2ccc(C(=O)O)cc21 [Example 322, (S)-2-(4-(6-((4-cyano-2-fluorobenzyl)oxy)-5-fluoropyridin-2-yl)-2,6-difluorobenzyl)-1-(4,4-dimethyltetrahydrofuran-3-yl)-1H-benzo[d]imidazole-6-carboxylic acid] |
| 0.734 nM | COc1cc(Cl)ncc1COc1nc(-c2cc(Cl)c(Cc3nc4ccc(C(=O)O)cc4n3[C@@H]3COCC3(C)C)cc2C)ccc1F [Example 323, (S)-2-(2-chloro-4-(6-((6-chloro-4-methoxypyridin-3-yl)methoxy)-5-fluoropyridin-2-yl)-5-methylbenzyl)-1-(4,4-dimethyltetrahydrofuran-3-yl)-1H-benzo[d]imidazole-6-carboxylic acid] |
| 0.049 nM | COc1cc(Cl)ncc1COc1nc(-c2ccc(Cc3nc4c(F)cc(C(=O)O)cc4n3[C@@H]3COCC3(C)C)c(F)c2)ccc1F [Example 324, (S)-2-(4-(6-((6-chloro-4-methoxypyridin-3-yl)methoxy)-5-fluoropyridin-2-yl)-2-fluorobenzyl)-1-(4,4-dimethyltetrahydrofuran-3-yl)-4-fluoro-1H-benzo[d]imidazole-6-carboxylic acid] |
| 0.155 nM | CC1(C)COC[C@H]1n1c(Cc2cc(F)c(-c3ccc(F)c(OCc4ccc(C#N)cc4)n3)cc2F)nc2c(F)cc(C(=O)O)cc21 [Example 325, (S)-2-(4-(6-((4-cyanobenzyl)oxy)-5-fluoropyridin-2-yl)-2,5-difluorobenzyl)-1-(4,4-dimethyltetrahydrofuran-3-yl)-4-fluoro-1H-benzo[d]imidazole-6-carboxylic acid] |

From patent US12570642B2, “GLP-IR modulating compounds” (Gilead Sciences, Inc., priority 2021, dated 2026)
